In PubChem BioAssay (NCI):
Where “and” joins values, the source holds several entries; their conditions need not be identical. Equal entries are not always repeated.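 Results reflect a 48-hour exposure of cells in 96-well plates to compound at five concentrations. Abbreviation: GI50, concentration required for 50% inhibition of growth. TGI marks complete inhibition of growth.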

System: IGROV1 ovarian
Test: growth of human tumour cells (NCI), 48 h

Structure (SMILES)	TGI	GI50
O=C(CCCn1ccnc1[N+](=O)[O-])NCCn1cncc1[N+](=O)[O-]	> 100 µM	
C[As](C)SC1OC(CO)C(O)C1O (stereo unspecified)	6.56 µM	1.32 µM
CCCCCCCCCC/C=C/CC(=O)SCCNC(=O)CCNC(=O)[C@@H](O)C(C)(C)COP(=O)(O)OP(=O)(O)OCC1OC(n2cnc3c(N)ncnc32)C(O)C1OP(=O)(O)O (stereo partly specified)	> 10 µM	
OCCN1CN(CCO)CN(c2nc(N3CN(CCO)CN(CCO)C3)nc(N3CN(CCO)CN(CCO)C3)n2)C1	4.61 ng/mL	1.55 ng/mL
Cn1c(=O)c2c(nc(Nc3cc(=O)[nH]c(=O)[nH]3)n2Cc2ccccc2)n(C)c1=O	> 100 µM	> 100 µM
COc1ccc2c(c1)CCC1C2CC[C@@]2(C)C1CC1=CC(COC(C)=O)C3C(=O)c4ccccc4C(=O)C3C12 (stereo partly specified)	> 100 µM	> 100 µM
C=C(F)C(=O)N1CCN(c2nc(OC[C@@H]3CCCN3C)nc3c2CCN(c2cccc4cccc(Cl)c24)C3)C[C@@H]1CC#N	3.2 µM	1.31 µM
Cc1c2cccnc2c(C)c2c1c1cc(CO)ccc1n2C	9.34 µM	0.579 µM
CC/C(=C(/c1ccc(OCCN(C)C)cc1)c1ccc(OC(=O)CCCCC(=O)c2c(C)[nH]c(/C=C3\N=C(c4ccc[nH]4)C=C3OC)c2C)cc1)c1ccccc1	46 µM	13.3 µM
CC[C@]12C=CCN3CC[C@@]4(c5ccc(OC)cc5N(C)[C@H]4[C@@](O)(C(=O)OC)[C@@H]1OC(=O)CCC[P+](c1ccccc1)(c1ccccc1)c1ccccc1)[C@@H]32	0.923 µM and 1.61 µM	0.235 µM and 0.394 µM
CC(=O)OC1Oc2ccccc2-c2oc(=O)c(-c3cc(=O)oc4cc(O)ccc34)cc21 (stereo unspecified)	83.6 µM	20.8 µM
Ic1ccc(Nc2nc3nonc3nc2Nc2ccc(I)cc2)cc1	> 100 µM	0.46 µM
CC(SC(C)C(=O)N/N=C/c1cccc(Cl)c1)C(=O)N/N=C\c1cccc(Cl)c1 (stereo unspecified)	69.3 µM	18.4 µM
CCOC(=O)/C=C/C(C(=O)/C=C/c1ccc(OC2CCCCO2)c(OC)c1)=C(O)\C=C\c1ccc(OC2CCCCO2)c(OC)c1 (stereo unspecified)	6.68 µM	2.85 µM
Cc1ccc(Cl)cc1Nc1nc(C(F)(F)F)ccc1C(=O)N1CCN(c2ccc(F)cc2)CC1	27.2 µM	0.21 µM
O=C(Nc1ccc(OS(=O)(=O)c2ccccc2)cc1)C12CC3CC(CC(C3)C1)C2	> 100 µM	> 100 µM
O=S(=O)([O-])c1ccc2c(c1)-c1nc-2nc2[n-]c(nc3nc(nc4[n-]c(n1)c1ccc(S(=O)(=O)[O-])cc41)-c1cc(S(=O)(=O)[O-])ccc1-3)c1ccc(S(=O)(=O)[O-])cc21.[Cu+2].[Na+]	> 100 µM	> 100 µM
CCN1CCN(c2ccc(Nc3cc(N(C)C(=O)Nc4c(Cl)c(OC)cc(OC)c4Cl)ncn3)cc2)CC1	22.6 µM	4.12 µM
CC(C)c1ccc(Nc2ccc3c(OCCCN4CCN(C)CC4)cccc3n2)cc1	32.6 µM	16.1 µM
COc1ccc(N(C)c2ncnc3occ(C)c23)cc1	> 100 µM	< 0.01 µM
O=C1NC(=Nc2ccccc2)S/C1=C\c1ccc2ncccc2c1	> 25 µM	> 7.5 µM
C/C1=C\CC[C@@]2(C)O[C@@H]2[C@H]2OC(=O)[C@@H](CN(C)C)[C@@H]2CC1	34.2 µM	17.9 µM
C=C(C)[C@@]12OC3(/C=C/C=C/CCCCC)O[C@@H]1[C@@H]1[C@@H]4O[C@]4(CO)[C@@H](O)[C@]4(O)C(=O)C(C)=C[C@H]4[C@@]1(O3)[C@H](C)[C@H]2OC(=O)c1ccccc1	3.18 µM	1.62 µM
C/C(=C\CCc1ccoc1)CC/C=C(\C)CCCC1=CC(=O)OC1	> 100 µM	19.5 µM
NC(=NCCCOc1ccc(Cl)cc1)Nc1ccc(C(F)(F)F)cc1	4.12 µM	1.47 µM

System: EKVX NSCLC
Test: growth of human tumour cells (NCI), 48 h

Structure (SMILES)	TGI	GI50
O=C(CCCn1ccnc1[N+](=O)[O-])NCCn1cncc1[N+](=O)[O-]	> 100 µM	
C[As](C)SC1OC(CO)C(O)C1O (stereo unspecified)	10.4 µM	0.877 µM
CCCCCCCCCC/C=C/CC(=O)SCCNC(=O)CCNC(=O)[C@@H](O)C(C)(C)COP(=O)(O)OP(=O)(O)OCC1OC(n2cnc3c(N)ncnc32)C(O)C1OP(=O)(O)O (stereo partly specified)	> 10 µM	
OCCN1CN(CCO)CN(c2nc(N3CN(CCO)CN(CCO)C3)nc(N3CN(CCO)CN(CCO)C3)n2)C1	2.87 ng/mL	1.16 ng/mL
Cn1c(=O)c2c(nc(Nc3cc(=O)[nH]c(=O)[nH]3)n2Cc2ccccc2)n(C)c1=O	> 100 µM	56.6 µM
COc1ccc2c(c1)CCC1C2CC[C@@]2(C)C1CC1=CC(COC(C)=O)C3C(=O)c4ccccc4C(=O)C3C12 (stereo partly specified)	> 100 µM	> 100 µM
C=C(F)C(=O)N1CCN(c2nc(OC[C@@H]3CCCN3C)nc3c2CCN(c2cccc4cccc(Cl)c24)C3)C[C@@H]1CC#N	7.53 µM	1.93 µM
Cc1c2cccnc2c(C)c2c1c1cc(CO)ccc1n2C	9.86 µM	1.4 µM
CC[C@]12C=CCN3CC[C@@]4(c5ccc(OC)cc5N(C)[C@H]4[C@@](O)(C(=O)OC)[C@@H]1OC(=O)CCC[P+](c1ccccc1)(c1ccccc1)c1ccccc1)[C@@H]32	10 µM and 18.2 µM	1.17 µM and 2.73 µM
CC(=O)OC1Oc2ccccc2-c2oc(=O)c(-c3cc(=O)oc4cc(O)ccc34)cc21 (stereo unspecified)	49.3 µM	17.5 µM
Ic1ccc(Nc2nc3nonc3nc2Nc2ccc(I)cc2)cc1	> 100 µM	0.245 µM
CC(SC(C)C(=O)N/N=C/c1cccc(Cl)c1)C(=O)N/N=C\c1cccc(Cl)c1 (stereo unspecified)	59.7 µM	13.3 µM
CCOC(=O)/C=C/C(C(=O)/C=C/c1ccc(OC2CCCCO2)c(OC)c1)=C(O)\C=C\c1ccc(OC2CCCCO2)c(OC)c1 (stereo unspecified)	> 100 µM	10.7 µM
Cc1ccc(Cl)cc1Nc1nc(C(F)(F)F)ccc1C(=O)N1CCN(c2ccc(F)cc2)CC1	45.4 µM	12.8 µM
O=S(=O)([O-])c1ccc2c(c1)-c1nc-2nc2[n-]c(nc3nc(nc4[n-]c(n1)c1ccc(S(=O)(=O)[O-])cc41)-c1cc(S(=O)(=O)[O-])ccc1-3)c1ccc(S(=O)(=O)[O-])cc21.[Cu+2].[Na+]	> 100 µM	> 60.4 µM
CC(C)c1ccc(Nc2ccc3c(OCCCN4CCN(C)CC4)cccc3n2)cc1	28.3 µM	14 µM
COc1ccc(N(C)c2ncnc3occ(C)c23)cc1	> 100 µM	< 0.01 µM
C/C1=C\CC[C@@]2(C)O[C@@H]2[C@H]2OC(=O)[C@@H](CN(C)C)[C@@H]2CC1	41.8 µM	21.1 µM
C=C(C)[C@@]12OC3(/C=C/C=C/CCCCC)O[C@@H]1[C@@H]1[C@@H]4O[C@]4(CO)[C@@H](O)[C@]4(O)C(=O)C(C)=C[C@H]4[C@@]1(O3)[C@H](C)[C@H]2OC(=O)c1ccccc1	2.86 µM	1.28 µM
NC(=NCCCOc1ccc(Cl)cc1)Nc1ccc(C(F)(F)F)cc1	8.65 µM	2.51 µM

System: MCF7 breast
Test: growth of human tumour cells (NCI), 48 h

Structure (SMILES)	TGI	GI50
O=C(CCCn1ccnc1[N+](=O)[O-])NCCn1cncc1[N+](=O)[O-]	> 100 µM	
C[As](C)SC1OC(CO)C(O)C1O (stereo unspecified)	1.3 µM	0.324 µM
CCCCCCCCCC/C=C/CC(=O)SCCNC(=O)CCNC(=O)[C@@H](O)C(C)(C)COP(=O)(O)OP(=O)(O)OCC1OC(n2cnc3c(N)ncnc32)C(O)C1OP(=O)(O)O (stereo partly specified)	> 10 µM	
OCCN1CN(CCO)CN(c2nc(N3CN(CCO)CN(CCO)C3)nc(N3CN(CCO)CN(CCO)C3)n2)C1	0.69 ng/mL	
Cn1c(=O)c2c(nc(Nc3cc(=O)[nH]c(=O)[nH]3)n2Cc2ccccc2)n(C)c1=O	> 100 µM	> 100 µM
COc1ccc2c(c1)CCC1C2CC[C@@]2(C)C1CC1=CC(COC(C)=O)C3C(=O)c4ccccc4C(=O)C3C12 (stereo partly specified)	> 100 µM	> 100 µM
C=C(F)C(=O)N1CCN(c2nc(OC[C@@H]3CCCN3C)nc3c2CCN(c2cccc4cccc(Cl)c24)C3)C[C@@H]1CC#N	2.96 µM	1.05 µM
Cc1c2cccnc2c(C)c2c1c1cc(CO)ccc1n2C	12.7 µM	0.501 µM
CC/C(=C(/c1ccc(OCCN(C)C)cc1)c1ccc(OC(=O)CCCCC(=O)c2c(C)[nH]c(/C=C3\N=C(c4ccc[nH]4)C=C3OC)c2C)cc1)c1ccccc1	1.2 µM	0.0544 µM
CC[C@]12C=CCN3CC[C@@]4(c5ccc(OC)cc5N(C)[C@H]4[C@@](O)(C(=O)OC)[C@@H]1OC(=O)CCC[P+](c1ccccc1)(c1ccccc1)c1ccccc1)[C@@H]32	5.21 µM and 1.79 µM	0.254 µM and 0.354 µM
CC(=O)OC1Oc2ccccc2-c2oc(=O)c(-c3cc(=O)oc4cc(O)ccc34)cc21 (stereo unspecified)	> 100 µM	29.9 µM
Ic1ccc(Nc2nc3nonc3nc2Nc2ccc(I)cc2)cc1	> 100 µM	0.225 µM
CC(SC(C)C(=O)N/N=C/c1cccc(Cl)c1)C(=O)N/N=C\c1cccc(Cl)c1 (stereo unspecified)	18.6 µM	5.16 µM
CCOC(=O)/C=C/C(C(=O)/C=C/c1ccc(OC2CCCCO2)c(OC)c1)=C(O)\C=C\c1ccc(OC2CCCCO2)c(OC)c1 (stereo unspecified)	36.2 µM	4.42 µM
